This is an account of results in patent US20070299062A1 (The Procter & Gamble Company, priority 2006, published 2007).

For experiment [1], the target named is MCH-1R (UniProt Q99705). Briefly: MCH-1R competition binding assay. The procedure: In vitro binding and function assays are performed on membranes derived from cells or tissues expressing endogenous MCH1R. Competition binding assays are performed to identify high affinity compounds. Briefly, either radiolabeled or europium labeled MCH with varying concentrations of competitor compound which are incubated with membranes expressing the receptor. Rat brain membrane or cell lines, including but not limited to human Kelly neuroblastoma cells, A-431 epidermoid cells, and rat PC-12 cells are known to express endogenous MCH1R and are used in the assay. Binding is allowed to proceed until equilibrium is reached then bound labeled MCH is separated from free MCH by capturing membranes onto a filter. The filters are washed to remove loosely associated MCH and labeled MCH is quantified. Data is analyzed and IC50 and Ki are calculated to determine compound affinity.

The target in experiment [2] is T1, 5-HT2c receptor (Homo sapiens, UniProt P28335).
T1 construct: purchased Perkin-Elmer or Euroscreen (named only as possible suppliers)
T1 sequence (P28335 33-458): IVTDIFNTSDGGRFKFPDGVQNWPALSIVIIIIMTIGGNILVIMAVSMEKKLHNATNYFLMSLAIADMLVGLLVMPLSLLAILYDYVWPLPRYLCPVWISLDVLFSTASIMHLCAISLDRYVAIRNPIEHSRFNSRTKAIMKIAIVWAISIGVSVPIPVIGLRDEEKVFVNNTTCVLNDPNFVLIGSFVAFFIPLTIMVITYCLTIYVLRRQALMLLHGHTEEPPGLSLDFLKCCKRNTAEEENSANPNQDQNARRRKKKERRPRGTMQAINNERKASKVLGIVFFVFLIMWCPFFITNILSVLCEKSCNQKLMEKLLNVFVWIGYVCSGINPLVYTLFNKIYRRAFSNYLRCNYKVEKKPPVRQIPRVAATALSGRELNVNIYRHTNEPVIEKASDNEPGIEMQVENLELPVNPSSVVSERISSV
Briefly: 5-HT2c receptor binding assay (3H-mesulergine competition). The following applies: 1 nM 3H-mesulergine; read-out: Ki (nM) binding data 5-HT2C. On the procedure: MCH antagonist compounds are evaluated for binding to the serotonin 5-HT2c receptor to determine receptor selectivity. Binding activity is assessed using a competitive assay with ^3H-mesulergine (Perkin Elmer), a 5-HT2c selective ligand, on membrane containing the 5-HT2c receptor. Briefly, 1 nM ^3H-mesulergine and varying concentrations of the compound are incubated with 5-HT2c receptor membranes, following an incubation period, the membranes are washed and ^3H-mesulergine bound to membranes is measured in a liquid scintillation counter. The amount of bound ^3H-mesulergine at the varying concentration of competitor compound is used to derive the affinity (Ki) of the compound for the 5-HT2c receptor. 5-HT2c receptor containing membranes are readily available from several companies including Perkin-Elmer and Euroscreen.

As a reminder, the Ki is the dissociation constant of the complex between target and ligand, obtained from inhibition or displacement. As for `O=c1c2sc(-c3ccc(Cl)cc3)cc2ncn1[C@H]1CCc2cc(CN3CCOCC3)ccc2C1` [(S)-6-(4-Chlorophenyl)-3-[6-(morpholinomethyl)-1,2,3,4-tetrahydronapthalene-2-yl]thieno[3,2-d]pyrimidin-4-(3H)-one], the values for the Ki in experiment [1] and in experiment [2] were 103 nM and more than 100000 nM, respectively.

Regarding `O=c1c2sc(-c3ccc(Cl)cc3)cc2ncn1[C@H]1CCc2cc(CN3CCS(=O)(=O)CC3)ccc2C1` [(S)-6-(4-Chlorophenyl)-3-[6-(1,1-dioxo-1λ^6-thiomorpholin-4-ylmethyl)-1,2,3,4-tetrahydronaphthalen-2-yl)thieno[3,2-d]pyrimidin-4(3H)-one], the Ki in experiment [1] is 1020 nM; in experiment [2], more than 100000 nM. The like results for `CS(=O)(=O)N1CCN(Cc2ccc3c(c2)CC[C@H](n2cnc4cc(-c5ccoc5)sc4c2=O)C3)CC1` were, in that order, 733 nM and more than 100000 nM.

Consider `CC(=O)N1CCN(Cc2ccc3c(c2)CC[C@H](n2cnc4cc(-c5ccc(C#N)cc5)sc4c2=O)C3)CC1` [(S)-3-[6-(4-Acetylpiperazin-1-ymethyl)-1,2,3,4-tetrahydronapthalen-2-yl]-6-(4-cyanophenyl)thieno[3,2-d]pyrimidin-4(3H)-one], for which, in experiment [2], the Ki is more than 100000 nM. As for `CS(=O)(=O)N1CCN(Cc2ccc3c(c2)CC[C@H](n2cnc4cc(-c5ccc(Cl)c(Cl)c5)sc4c2=O)C3)CC1`, the Ki is 142 nM in experiment [1] and more than 100000 nM in experiment [2].

On to `CC(=O)N1CCN(Cc2ccc3c(c2)CC[C@H](n2cnc4cc(-c5ccnc(Cl)c5)sc4c2=O)C3)CC1` [(S)-3-[6-(4-Acetylpiperazin-1-ymethyl)-1,2,3,4-tetrahydronapthalen-2-yl]-6-(2-chloropyridin-4-yl)thieno[3,2-d]pyrimidin-4(3H)-one], for which the results for the Ki in experiment [1] and in experiment [2] were 496 nM and more than 100000 nM, respectively. `CC(=O)N1CCN(Cc2ccc3c(c2)CC[C@H](n2cnc4cc(-c5cccc(F)c5)sc4c2=O)C3)CC1` [(S)-3-[6-(4-Acetylpiperazin-1-ymethyl)-1,2,3,4-tetrahydronapthalen-2-yl]-6-(3-fluorophenyl)thieno[3,2-d]pyrimidin-4-(3H)one]: the Ki was 17.9 nM in experiment [1] and more than 100000 nM in experiment [2]. The like results for `CC(=O)N1CC2CC1CN2Cc1ccc2c(c1)CC[C@H](n1cnc3cc(-c4ccc(Cl)cc4)sc3c1=O)C2` (stereo partly drawn) [(S)-6-(4-Chlorophenyl)-3-[6-(5-acetyl-2,5-diaza-bicyclo[2.2.1]hept-2-ylmethyl)-1,2,3,4-tetrahydronaphthalen-2-yl)thieno[3,2-d]pyrimidin-4(3H)-one] were, in that order, 1.8 nM and more than 100000 nM. On the same counts, the results for `CS(=O)(=O)C1CCN(Cc2ccc3c(c2)CC[C@H](n2cnc4cc(-c5ccc(Cl)cc5)sc4c2=O)C3)CC1` [6-(4-Chlorophenyl)-3-[(S)-6-(4-methanesulfonylpiperidin-1-ylmethyl)-1,2,3,4-tetrahydronapthealen-2-yl}thieno[3,2-d]pyrimidin-4(3H)-one] are 8.2 nM and more than 100000 nM. As for “(S)-6-(4-Chlorophenyl)-3-(6-((4-morpholinopiperidin-1-yl)methyl)-1,2,3,4-tetrhaydronapthalene-2-yl)thieno[3,2,-d]pyrimidin-4-(3H)-one”, the Ki is 16 nM in experiment [1] and more than 100000 nM in experiment [2]. On the same counts, the results for `C[C@H](O)CNCc1ccc2c(c1)CC[C@H](n1cnc3cc(-c4ccc(Cl)cc4)sc3c1=O)C2` [6-(4-Chlorophenyl)-3-{(S)-6-[(S)-2-hydroxypropylaminomethyl]-1,2,3,4-tetrahydronapthealen-2-yl}thieno[3,2-d]pyrimidin-4(3H)-one] are 25 nM and 3080 nM.

In the case of `CC(=O)N1CCN(Cc2ccc3c(c2)CC[C@H](n2cnc4cc(-c5ccc(C#N)cc5)sc4c2=O)C3)CC1` [(S)-3-[6-(4-Acetylpiperazin-1-ymethyl)-1,2,3,4-tetrahydronap] [(S)-3-[6-(4-Acetylpiperazin-1-ymethyl)-1,2,3,4-tetrahydronapthalen-2-yl]-6-(4-cyanophenyl)thieno[3,2-d]pyrimidin-4(3H)-one], in experiment [1], the affinity, expressed as Ki, was 34 nM.
